Assay results reported in patent US5919782A, “Heterocyclic compounds having antidiabetic, hypolipidaemic, antihypertensive properties, process for their preparation and pharmaceutical compositions containing them” (Dr. Reddy's Research Foundation, priority 1996, dated 1999).
Structures can show the parent of a compound that is named as a salt.

Assays:
rats = assay: Subacute toxicity in rats; type: in vivo; conditions: 100 mg/kg orally
Description: Groups of 20 rats, consisting of 10 males and 10 females, weighing between 120 to 140 gm, received orally 100 mg/kg of compound of Example 6 for 28 days. The behavioral changes and body weights were monitored daily. The rats were sacrificed on the 29th day and blood was collected for hematological and biochemical estimations. All vital organs were examined both macroscopically and microscopically.

C57 BL/KsJ-db/db mice = assay: blood sugar and triglycerides lowering activity in db/db mice; type: in vivo, mouse (male C57 BL/KsJ-db/db); conditions: for Reduction in Blood Glucose Level / Triglyceride Lowering: oral gavage daily for 6 days, db/db mice
Text: Mutation in colonies of laboratory animals and different sensitivities to dietary regimens have made the development of animal models with non-insulin dependent diabetes associated with obesity and insulin resistance possible. Genetic models such as db/db and ob/ob (See Diabetes, (1982) 31(1): 1-6) in mice and fa/fa and zucker rats have been developed by the various laboratories for understanding the pathophysiology of disease and testing the efficacy of new antidiabetic compounds (Diabetes, (1983) 32: 830-838; Annu. Rep. Sankyo Res. Lab. (1994). 46: 1-57). The homozygous animals, C57 BL/KsJ-db/db mice developed by Jackson Laboratory, US, are obese, hyperglycemic, hyperinsulinemic and insulin resistant (J. Clin. Invest., (1990) 85: 962-967), whereas heterozygous are lean and normoglycemic. In db/db model, mice progressively develop insulinopenia with age, a feature commonly observed in late stages of human type II diabetes when blood sugar levels are insufficiently controlled. The state of pancreas and its course vary according to the models. Since this model resembles that of type II diabetes mellitus, the compounds of the present invention were tested for blood sugar and triglycerides lowering activities.
Male C57 BL/KsJ-db/db mice of 8 to 14 weeks age, having body weight range of 35 to 60 grams, procured from the Jackson Laboraotory, USA, were used in the experiment. The mice were provided with standard feed (National Institute of Nutrition, Hyderabad, India) and acidified water, ad libitum. The animals having more than 300 mg/dl blood sugar were used for testing. The number of animals in each group was 4.
The random blood sugar and triglyceride levels were measured by collecting blood (100 μl) through orbital sinus, using heparinised capillary in tubes containing EDTA which was centrifuged to obtain plasma. The plasma glucose and triglyceride levels were measured spectrometrically, by glucose oxidase and glycerol-3-PO4 oxidase/peroxidase enzyme (Dr. Reddy's Lab. Diagnostic Division Kits, Hyderabad, India) methods respectively. On 6th day the blood samples were collected one hour after administration of test compounds/vehicle for assessing the biological activity.
Test compounds were suspended on 0.25% carboxymethyl cellulose or water (for water soluble compounds) and administered to test group at a dose of 10 to 30 mg/kg through oral gavage daily for 6 days. The control group received vehicle (dose 10 ml/kg).
The blood sugar and triglycerides lowering activities of the test compound was calculated according to the formula: [formula] ZC=Zero day control group value DC=Zero day treated group value
TC=Control group value on test day
DT=Treated group value on the test day

| SMILES | Reduction in Blood Glucose Level (C57 BL/KsJ-db/db mice; 10 mg/kg) [%] | Triglyceride Lowering (C57 BL/KsJ-db/db mice; 10 mg/kg) [%] | Reduction in Blood Glucose Level (C57 BL/KsJ-db/db mice; 30 mg/kg) [%] | Triglyceride Lowering (C57 BL/KsJ-db/db mice; 30 mg/kg) [%] | also measured |
| --- | --- | --- | --- | --- | --- |
| O=C1NC(=O)C(=Cc2ccc(OC[C@@H]3CCCN3c3ccccn3)cc2)S1 [Example 6, 5-[4-[[1-(Pyridin-2-yl)-(2S)-pyrrolidin-2-yl]methoxy]phenylmethylene]thiazolidine-2,4-dione, maleic acid salt] | 49 | 71 |  |  | gross macroscopic and microscopic changes of heart, lungs, bone marrow, kidneys and spleen (rats; 28 days): No gross macroscopic and microscopic changes of heart, lungs, bone marrow, kidneys and spleen were observed; mortality (rats; 28 days): did not produce any mortality; Organ Weight, Heart (rats; 28 days, Control 0.59 ± 0.09): 0.61 ± 0.08 g; RBC (rats; 28 days, Control 7.33 ± 0.75): 7.08 ± 0.93 × 10^6 /mm^3; WBC (rats; 28 days, Control 8.08 ± 2.01): 9.19 ± 2.11 × 10^3 /mm^3; Hemoglobin (rats; 28 days, Control 15.18 ± 0.69): 14.88 ± 0.46 gm/dl; PVC (rats; 28 days, Control 52.06 ± 2.58): 52.21 ± 2.67%; hematological and biochemical parameters, deviations from control (rats; end of 28 days treatment): no significant deviations from the control were observed in hematological and biochemical parameters |
| O=C1NC(=O)C(=Cc2ccc(OC[C@@H]3CCCN3c3ccccn3)cc2)S1 [Example 7, 5-[4-[[1-(Pyridin-2-yl)-(2S)-pyrrolidin-2-yl]methoxy]phenylmethylene]thiazolidine-2,4-dione, hydrochloride salt] |  |  | 67 | 43 |  |
| O=C1NC(=O)C(Cc2ccc(OC[C@@H]3CCCN3c3ccc4ccccc4n3)cc2)S1 (stereo partly drawn) [Example 12, 5-[4-[[1-(Quinolin-2-yl)-(2S)-pyrrolidin-2-yl]methoxy]phenylmethyl]thiazolidine-2,4-dione] |  |  | 27 | 49 |  |
| Cc1cc(N2CCC[C@H]2COc2ccc(CC3SC(=O)NC3=O)cc2)nc2ccccc12 (stereo partly drawn) [Example 20, 5-[4-[[1-(Lepidin-2-yl)-(2S)-pyrrolidin-2-yl]methoxy]phenylmethyl]thiazolidine-2,4-dione, sodium salt] |  |  | 30 | 62 |  |
| O=C1NC(=O)C(=Cc2ccc(O[C@H]3CCN(c4ccccn4)C3)cc2)S1 [Example 23, 5-[4-[1-(Pyridin-2-yl)-(3S)-pyrrolidin-3-yloxy]phenylmethylene]thiazolidine-2,4-dione, hydrochloride salt] | 46 | 10 |  |  |  |
| O=C1NC(=O)C(Cc2ccc(OCC3CN(c4ccccn4)CCO3)cc2)S1 (stereo not drawn) [Example 27, 5-[4-[[4-(Pyridin-2-yl)morpholin-2yl]methoxy]phenylmethyl]thiazolidine-2,4-dione, sodium salt] | 56 | 29 |  |  |  |
| Cc1c(C)c2c(c(C)c1O)CCC(C)(COc1ccc(CC3SC(=O)NC3=O)cc1)O2 (stereo not drawn) [Troglitazone, reference compound] |  |  |  |  | reduction in random blood sugar level (C57 BL/KsJ-db/db mice; 100 mg/kg daily dose, standard drug, on 6th day): 28% |
